Laboratory results: DBAASP
≈ marks a conversion by molar mass, not a printed value.

How the values were obtained:
Experiment in all cases: ≥ marks a high value that may be exact or a test limit, other limits are often not marked, values filed in µg/mL are converted to µM
[1] = system: Pseudomonas aeruginosa Ps4
[2] = system: Staphylococcus aureus SA113
[3] = system: Staphylococcus aureus RN4220
[4] = system: Salmonella enterica subsp. enterica serovar Typhimurium LT2
[5] = system: Cronobacter sakazakii DSM 4485
[6] = system: Staphylococcus aureus Newman
[7] = system: Staphylococcus aureus NCTC 8325-4
[8] = system: Staphylococcus aureus RF122
[9] = system: Cronobacter sakazakii DPC 6440
[10] = system: Pseudomonas fluorescens NCIMB 9046
[11] = system: Klebsiella pneumoniae NCIMB 13218
[12] = system: Escherichia coli NCIMB 11843
[13] = system: Cronobacter muytjensii ATCC 51329
[14] = system: Cronobacter sakazakii ATCC BAA-894
Escherichia coli JW0013 = system: Escherichia coli JW0013
[15] = system: Pseudomonas aeruginosa ATCC 27853
[16] = system: Bacillus subtilis ATCC 6051

Row | Compound | MIC [1] | MIC [2] | MIC [3] | MIC [4] | MIC [5] | MIC [6] | MIC [7] | MIC [8] | MIC [9] | MIC [10] | MIC [11] | MIC [12] | MIC [13] | MIC [14] | MIC (Escherichia coli JW0013) | MIC [15] | MIC [16]
1 | CC[C@H](C)[C@H](NC(=O)[C@H](CCCCN)NC(=O)[C@H](CCCCN)NC(=O)[C@H](CCCCN)NC(=O)[C@@H](NC(=O)[C@H](CCCCN)NC(=O)[C@H](CCCN=C(N)N)NC(=O)[C@@H](NC(=O)[C@H](CC(N)=O)NC(=O)[C@H](CCCN=C(N)N)NC(=O)[C@H](CCC(N)=O)NC(=O)[C@H](Cc1c[nH]c2ccccc12)NC(=O)[C@@H](N)Cc1ccccc1)[C@@H](C)CC)C(C)C)C(N)=O [FWQRNIRKVKKKI] | ≥ 143 µM | – | – | – | – | – | – | – | – | – | – | – | – | – | – | – | –
2 | CC[C@H](C)[C@H](NC(=O)[C@H](CCCN=C(N)N)NC(=O)[C@H](CCCN=C(N)N)NC(=O)[C@@H]1CCCN1C(=O)[C@@H]1CCCN1C(=O)[C@H](CCCN=C(N)N)NC(=O)[C@@H]1CCCN1C(=O)[C@H](CCCN=C(N)N)NC(=O)[C@@H]1CCCN1C(=O)[C@H](CC(C)C)NC(=O)[C@H](Cc1ccc(O)cc1)NC(=O)[C@@H]1CCCN1C(=O)[C@H](CC(N)=O)NC(=O)[C@H](CCCCN)NC(=O)[C@H](CC(=O)O)NC(=O)[C@@H](N)C(C)C)C(=O)N[C@@H](Cc1ccc(O)cc1)C(=O)N[C@@H](CC(N)=O)C(=O)N[C@@H](CCCN=C(N)N)C(N)=O [VDKNPYLPRPRPPRRIYNR] | – | – | – | – | – | – | – | – | – | – | – | – | – | – | 1.99 µM (≈ 4.8 µg/mL) | – | –
3 | CC[C@H](C)[C@H](NC(=O)[C@H](CC(N)=O)NC(=O)[C@H](CCCN=C(N)N)NC(=O)[C@H](CCC(N)=O)NC(=O)[C@H](Cc1c[nH]c2ccccc12)NC(=O)[C@@H](N)CS)C(=O)N[C@@H](CCCN=C(N)N)C(=O)N[C@@H](CCCCN)C(=O)N[C@@H](CS)C(=O)N[C@@H](CCCN=C(N)N)C(N)=O [CWQRNIRKCR] | ≥ 183 µM | – | – | – | – | – | – | – | – | – | – | – | – | – | – | – | –
4 | CC[C@H](C)[C@H](NC(=O)[C@H](CCCN=C(N)N)NC(=O)[C@@H](N)CCCN=C(N)N)C(=O)N[C@@H](CCCN=C(N)N)C(=O)N1CCC[C@H]1C(=O)N[C@@H](CCCN=C(N)N)C(=O)N1CCC[C@H]1C(=O)N1CCC[C@H]1C(=O)N[C@@H](CCCN=C(N)N)C(=O)N[C@@H](CC(C)C)C(=O)N1CCC[C@H]1C(=O)N[C@@H](CCCN=C(N)N)C(=O)N1CCC[C@H]1C(=O)N[C@@H](CCCN=C(N)N)C(=O)N1CCC[C@H]1C(=O)N[C@@H](CCCCN)C(=O)O [RRIRPRPPRLPRPRPK] | – | – | – | – | – | – | – | – | – | – | – | – | – | – | 0.24 µM (≈ 0.492 µg/mL) | – | –
5 | CC[C@H](C)[C@H](NC(=O)[C@H](CCCN=C(N)N)NC(=O)[C@H](CCCN=C(N)N)NC(=O)[C@@H]1CCCN1C(=O)[C@@H]1CCCN1C(=O)[C@H](CCCN=C(N)N)NC(=O)[C@@H]1CCCN1C(=O)[C@H](CCCN=C(N)N)NC(=O)[C@@H]1CCCN1C(=O)[C@H](CC(C)C)NC(=O)[C@H](Cc1ccc(O)cc1)NC(=O)[C@H](CS)NC(=O)[C@@H]1CCCN1C(=O)[C@H](CCCCN)NC(=O)[C@H](CC(=O)O)NC(=O)[C@@H](N)C(C)C)C(=O)N[C@@H](Cc1ccc(O)cc1)C(=O)N[C@@H](CC(N)=O)C(=O)N[C@@H](CCCN=C(N)N)C(N)=O [VDKPCYLPRPRPPRRIYNR] | – | – | – | – | – | – | – | – | – | – | – | – | – | – | 2 µM (≈ 4.8 µg/mL) | – | –
6 | CC[C@H](C)[C@H](NC(=O)[C@H](CCCN=C(N)N)NC(=O)[C@H](CCCN=C(N)N)NC(=O)[C@@H]1CCCN1C(=O)[C@@H]1CCCN1C(=O)[C@H](CCCN=C(N)N)NC(=O)[C@@H]1CCCN1C(=O)[C@H](CCCN=C(N)N)NC(=O)[C@@H]1CCCN1C(=O)[C@H](CCCN=C(N)N)NC(=O)[C@H](CCCN=C(N)N)NC(=O)[C@@H]1CCCN1C(=O)[C@H](CCCN=C(N)N)NC(=O)[C@H](CCCCN)NC(=O)[C@H](CC(=O)O)NC(=O)[C@@H](N)C(C)C)C(=O)N[C@@H](Cc1ccc(O)cc1)C(=O)N[C@@H](CC(N)=O)C(=O)N[C@@H](CCCN=C(N)N)C(N)=O [VDKRPRRPRPRPPRRIYNR] | – | – | – | – | – | – | – | – | – | – | – | – | – | – | 0.965 µM (≈ 2.4 µg/mL) | – | –
7 | CC[C@H](C)[C@H](NC(=O)[C@@H](N)Cc1cnc[nH]1)C(=O)N[C@@H](CCC(N)=O)C(=O)N[C@@H](CCCCN)C(=O)N[C@@H](CCC(=O)O)C(=O)N[C@@H](CC(=O)O)C(=O)N[C@H](C(=O)N1CCC[C@H]1C(=O)N[C@@H](CO)C(=O)N[C@@H](CCC(=O)O)C(=O)N[C@@H](CCCN=C(N)N)C(=O)N[C@@H](Cc1ccc(O)cc1)C(=O)N[C@@H](CC(C)C)C(=O)NCC(=O)N[C@@H](Cc1ccc(O)cc1)C(=O)N[C@@H](CC(C)C)C(=O)N[C@@H](CCC(=O)O)C(=O)N[C@@H](CCC(N)=O)C(=O)N[C@@H](CC(C)C)C(=O)N[C@@H](CC(C)C)C(=O)N[C@@H](CCCN=C(N)N)C(=O)N[C@@H](CC(C)C)C(=O)N[C@@H](CCCCN)C(=O)N[C@@H](CCCCN)C(=O)O)C(C)C [HIQKEDVPSERYLGYLEQLLRLKK] | – | – | – | – | – | – | – | – | – | – | – | – | – | – | – | – | ≥ 186 µM
8 | CC(C)C[C@H](NC(=O)[C@H](CCCN=C(N)N)NC(=O)[C@@H]1CCCN1C(=O)[C@@H]1CCCN1C(=O)[C@H](CCCN=C(N)N)NC(=O)[C@@H]1CCCN1C(=O)[C@H](CCCN=C(N)N)NC(=O)[C@H](CCCCN)NC(=O)[C@H](CCCN=C(N)N)NC(=O)[C@@H](N)CCCN=C(N)N)C(=O)N1CCC[C@H]1C(=O)N[C@@H](CCCN=C(N)N)C(=O)N1CCC[C@H]1C(=O)N[C@@H](CCCN=C(N)N)C(=O)N1CCC[C@H]1C(=O)N[C@@H](CCCN=C(N)N)C(=O)O [RRKRPRPPRLPRPRPR] | – | – | – | – | – | – | – | – | – | – | – | – | – | – | 0.3 µM (≈ 0.627 µg/mL) | – | –

Results, then the compound that gave them:

Row | MIC [1] | MIC [2] | MIC [3] | MIC [4] | MIC [5] | MIC [6] | MIC [7] | MIC [8] | MIC [9] | MIC [10] | MIC [11] | MIC [12] | MIC [13] | MIC [14] | MIC (Escherichia coli JW0013) | MIC [15] | MIC [16] | Compound
9 | – | ≥ 625 µM | ≥ 1250 µM | ≥ 2500 µM | ≥ 1250 µM | ≥ 1250 µM | ≥ 312 µM | ≥ 1250 µM | ≥ 1250 µM | ≥ 1250 µM | ≥ 2500 µM | ≥ 2500 µM | ≥ 1250 µM | ≥ 1250 µM | – | – | – | CC[C@H](C)[C@H](N)C(=O)N[C@@H](CCCN=C(N)N)C(=O)N[C@@H](CCCN=C(N)N)C(=O)N[C@@H](CCC(N)=O)C(=O)NCC(=O)N[C@@H](CC(C)C)C(=O)N1CCC[C@H]1C(=O)N[C@@H](CCC(=O)O)C(=O)O [IRRQGLPE]
10 | – | ≥ 625 µM | ≥ 1250 µM | ≥ 1250 µM | ≥ 2500 µM | ≥ 1250 µM | ≥ 1250 µM | ≥ 1250 µM | ≥ 1250 µM | ≥ 1250 µM | ≥ 1250 µM | ≥ 1250 µM | ≥ 2500 µM | ≥ 2500 µM | – | – | – | CC(C)C[C@H](NC(=O)CNC(=O)[C@H](CCC(N)=O)NC(=O)[C@H](Cc1cnc[nH]1)NC(=O)[C@@H](N)CCCCN)C(=O)N1CCC[C@H]1C(=O)N[C@@H](CCC(N)=O)C(=O)N[C@@H](CCC(=O)O)C(=O)O [KHQGLPQE]
11 | – | ≥ 625 µM | ≥ 1250 µM | ≥ 2500 µM | ≥ 2500 µM | ≥ 625 µM | ≥ 1250 µM | ≥ 1250 µM | ≥ 625 µM | ≥ 1250 µM | ≥ 1250 µM | ≥ 1250 µM | ≥ 2500 µM | ≥ 2500 µM | – | – | – | CC(C)C[C@H](NC(=O)[C@H](C)NC(=O)[C@H](CC(N)=O)NC(=O)[C@H](CCC(=O)O)NC(=O)[C@H](CC(N)=O)NC(=O)[C@H](CC(C)C)NC(=O)[C@@H](N)C(C)C)C(=O)N[C@@H](CCCN=C(N)N)C(=O)O [VLNENALR]
12 | – | ≥ 1250 µM | ≥ 1250 µM | ≥ 1250 µM | ≥ 2500 µM | ≥ 1250 µM | ≥ 1250 µM | ≥ 1250 µM | ≥ 312 µM | ≥ 1250 µM | ≥ 1250 µM | ≥ 1250 µM | ≥ 2500 µM | ≥ 2500 µM | – | – | – | CC(C)C[C@H](NC(=O)[C@H](CC(C)C)NC(=O)[C@H](CC(N)=O)NC(=O)[C@H](CCC(=O)O)NC(=O)[C@H](CC(N)=O)NC(=O)[C@H](CC(C)C)NC(=O)[C@@H](N)C(C)C)C(=O)O [VLNENLL]
13 | – | ≥ 2500 µM | ≥ 2500 µM | ≥ 2500 µM | ≥ 2500 µM | ≥ 2500 µM | ≥ 2500 µM | ≥ 2500 µM | ≥ 1250 µM | ≥ 2500 µM | ≥ 2500 µM | ≥ 2500 µM | ≥ 2500 µM | ≥ 1250 µM | – | – | – | CC[C@H](C)[C@H](N)C(=O)N[C@@H](Cc1cnc[nH]1)C(=O)N[C@@H](Cc1cnc[nH]1)C(=O)N[C@@H](CCC(N)=O)C(=O)NCC(=O)N[C@@H](CC(C)C)C(=O)N1CCC[C@H]1C(=O)N[C@@H](CCC(N)=O)C(=O)N[C@@H](CCC(=O)O)C(=O)O [IHHQGLPQE]
14 | – | ≥ 1250 µM | ≥ 1250 µM | ≥ 2500 µM | ≥ 1250 µM | ≥ 1250 µM | ≥ 625 µM | ≥ 1250 µM | ≥ 1250 µM | ≥ 1250 µM | ≥ 1250 µM | ≥ 2500 µM | ≥ 625 µM | ≥ 1250 µM | – | 32 µM (≈ 32.4 µg/mL) | – | CC(C)C[C@H](NC(=O)[C@H](CC(N)=O)NC(=O)[C@H](CCC(=O)O)NC(=O)[C@H](CC(N)=O)NC(=O)[C@H](CC(C)C)NC(=O)[C@@H](N)C(C)C)C(=O)N[C@@H](CCCN=C(N)N)C(=O)N[C@@H](CCCN=C(N)N)C(=O)O [VLNENLRR]
